Experimental data: ChEMBL document CHEMBL3616434, “Identification of Phenoxyalkylbenzimidazoles with Antitubercular Activity” (J Med Chem, 2015)
Values after ≈ are worked out from the molar mass of the structure shown. Active and inactive are the calls of the source. The calls are words filed in the database; no cut-off is given here.

Assays:
[1] = test system: Mycobacterium tuberculosis; assay: Antitubercular activity against Mycobacterium tuberculosis H37Rv ATCC 25618 under aerobic condition after 5 days; assay type: functional; details: H37Rv ATCC 25618, 120 h
[2] = Cytotoxicity against African green monkey Vero cells after 2 days by luminescent assay; assay type: cell-based; details: chlorocebus sabaeus, read-out: TC50
[3] = Selectivity index, ratio of TC50 for African green monkey Vero cells to MIC for Mycobacterium tuberculosis H37Rv ATCC 25618
[4] = test system: Mycobacterium tuberculosis; assay: Bactericidal activity against replicating Mycobacterium tuberculosis at 1 to 10 times MIC after 21 days; assay type: functional, organism-based

Row | Compound | MIC [1] [µM] | CC50 at 48 h [2] [µM] | Ratio [3] | Activity [4]
1 | Cc1nc2ccccc2n1CCCCOc1ccccc1 | > 20 | > 50 |  | 
2 | CCc1nc2ccccc2n1CCCCOc1ccc(C#N)cc1 | 16 (≈ 5.11 µg/mL) | 27 | 1.7 | 
3 | CCc1nc2ccc(C)cc2n1CCCSc1ccc(C)cc1 | 3.3 (≈ 1.07 µg/mL) | 12 | 3.6 | 
4 | Cc1ccc2nc(C(C)O)n(CCCCOc3ccccc3)c2c1 (stereo not drawn) | 20 (≈ 6.49 µg/mL) |  |  | 
5 | CCc1nc2ccccc2n1CCCCOc1cccc(C)c1 | 0.42 (≈ 0.13 µg/mL) | 19 | 45 | 
6 | CCc1nc2ccccc2n1CCCCOc1ccnc2ccccc12 | > 20 | > 50 |  | 
7 | CCc1nc2ccccc2n1CCOc1ccccc1 | > 20 |  |  | 
8 | FC(F)(F)c1nc2ccccc2n1CCCCOc1ccccc1 | > 20 |  |  | 
9 | CCc1nc2cc(Cl)cnc2n1CCCCOc1ccccc1 | 6.1 (≈ 2.01 µg/mL) | 38 | 6.2 | 
10 | Cc1ccc2nc(C(C)O)n(CCCCOc3ccc(C)c(Cl)c3)c2c1 (stereo not drawn) | 11 (≈ 4.1 µg/mL) | 8.6 | 0.8 | 
11 | CCc1cc2ccccc2n1CCCCSc1nnc(-c2ccc(Cl)cc2)o1 | > 20 | > 50 |  | 
12 | CCc1nc2cc(OC)ccc2n1CCCCOc1ccccc1 | > 20 |  |  | 
13 | CCc1nc2ccccc2n1CCCCOc1cccnc1 | > 20 | > 50 |  | 
14 | CCc1nc2cnc(C)cc2n1CCCCOc1ccccc1 | 1.5 (≈ 0.464 µg/mL) | 71 | 47 | 
15 | Cc1nc2ccccc2n1CCOc1ccccc1 | > 20 |  |  | 
16 | CC(=O)Nc1nc2ccc(C)cc2n1CCCCOc1ccc(C)c(Cl)c1 | 11 (≈ 4.24 µg/mL) | 8.3 | 0.8 | 
17 | CCc1nc2ccncc2n1CCCCOc1ccccc1 | > 20 |  |  | 
18 | c1ccc(OCCCCn2ncc3ccccc32)cc1 | > 20 | > 50 |  | 
19 | Cc1nc2ccccc2n1CCCOc1ccccc1 | > 20 | > 50 |  | 
20 | CCc1nc2ccccc2n1CCCCOCc1ccccc1 | 3.6 (≈ 1.11 µg/mL) | 32 | 8.9 | 
21 | c1ccc(OCCCCn2cnc3ccccc32)cc1 | > 20 |  |  | 
22 | CCc1nc2ccc(C)cc2n1CCCCNc1ccccc1 | 0.32 (≈ 0.0984 µg/mL) | 21 | 66 | 

Row | Compound | MIC [1] [µM] | CC50 at 48 h [2] [µM] | Ratio [3] | Activity [4]
23 | c1ccc(OCCCCn2c(-c3ccccc3)nc3ccccc32)cc1 | 16 (≈ 5.48 µg/mL) | 19 | 1.2 | 
24 | CCc1nc2ccccc2n1CCCCOc1ccc(Cl)cc1 | 1.5 (≈ 0.493 µg/mL) | 14 | 9.3 | 
25 | CCc1nc2ccccc2n1CCCCOc1ccc(Cl)cc1Cl | 1.8 (≈ 0.654 µg/mL) | 23 | 13 | 
26 | CCc1cc2ccccc2n1CCCCNc1ccc(C)c(Br)c1 | > 20 |  |  | 
27 | CCc1nc2ccccc2n1CCCCOc1ccc2sc(C)nc2c1 | 1.5 (≈ 0.548 µg/mL) | 21 | 14 | 
28 | CCc1nc2ccccc2n1CCCCOc1ccc(OC)cc1 | 1.2 (≈ 0.389 µg/mL) | 21 | 27 | 
29 | CCc1nc2ccccc2n1CC1COc2ccccc2O1 (stereo not drawn) | > 20 |  |  | 
30 | CN1CCN(c2nc3ccccc3n2CCCCOc2ccccc2)CC1 | > 20 |  |  | 
31 | CCc1nc2ccc(C)cc2n1CCCOc1ccc(C)c(C)c1 | 0.22 (≈ 0.0709 µg/mL) | 7.3 | 33 | 
32 | CCc1nc2ccccc2n1CCCCOC | > 20 | > 50 |  | 
33 | CCc1nc2ccc(C)cc2n1CCCCNc1ccc(C)cc1C | 0.31 (≈ 0.104 µg/mL) | 20 | 65 | 
34 | CCc1nc2ccc(C)cc2n1CCCCNc1ccc(C)cc1 | 0.15 (≈ 0.0482 µg/mL) | 20 | 133 | 
35 | CCc1nc2cc(C#N)ccc2n1CCCCOc1ccccc1 | > 20 | > 20 | >20 | 
36 | Clc1nc2ccccc2n1CCCCOc1ccccc1 | > 20 |  |  | 
37 | CCc1nc2ccc(OC)cc2n1CCCCOc1ccccc1 | 0.9 (≈ 0.292 µg/mL) | 27 | 30 | 
38 | CCc1nc2ccccc2n1CCCCOc1cc(C)c(Cl)c([N+](=O)[O-])c1 | 7.9 (≈ 3.06 µg/mL) | 18 | 19 | 
39 | CCc1nc2ccccc2n1CCCCOc1ccc(C)cc1 | 0.15 (≈ 0.0463 µg/mL) | 14 | 93 | 
40 | CCc1nc2ccccc2n1CCCCOc1ccccc1C(C)C | 20 (≈ 6.73 µg/mL) | 19 | 0.7 | 
41 | CCc1nc2ccccc2n1CCCCOc1ccc(Cl)c(F)c1 | 1.6 (≈ 0.555 µg/mL) | 16 | 10 | 
42 | Nc1nc2ccccc2n1CCCCOc1ccccc1 | > 20 |  |  | 
43 | CCc1nc2cnccc2n1CCCCOc1ccccc1 | > 20 |  |  | 
44 | CCc1nc2ccccc2n1CCCCOc1ccc(Cl)cc1C | 1.5 (≈ 0.514 µg/mL) | 20 | 2.3 | 

Row | Compound | MIC [1] [µM] | CC50 at 48 h [2] [µM] | Ratio [3] | Activity [4]
45 | CCc1nc2ccc(C)cc2n1CCCOc1ccc(C)cc1 | 0.27 (≈ 0.0833 µg/mL) | 15 | 56 | 
46 | CCc1nc2ccccc2n1CCCCOc1ccccc1Cl | 0.68 (≈ 0.224 µg/mL) | 16 | 23 | 
47 | CCc1nc2ccccc2n1CCCCOc1ccc(N2CCOCC2)cc1 | > 20 | 32 |  | 
48 | CCc1nc2ccccc2n1CCCCOc1c(Cl)cccc1Cl | 20 (≈ 7.27 µg/mL) | 13 | 1.5 | 
49 | CCc1nc2ccccc2n1CCCCOc1ccccc1C | 0.32 (≈ 0.0987 µg/mL) | 16 | 50 | 
50 | CCc1cc2ccccc2n1CCCCOc1ccc(C)c(Cl)c1 | > 20 |  |  | 
51 | CCc1nc2ccc(C)cc2n1CCCCNc1ccc(C)c(Br)c1 | 0.11 (≈ 0.044 µg/mL) | 12 | 109 | 
52 | CCc1nc2ccccc2n1CCCCOc1ccc(Cl)cc1F | 1.5 (≈ 0.52 µg/mL) | 5.7 | 3.8 | 
53 | CCc1nc2ccccc2n1CCCCOc1ccncc1 | > 20 | > 50 |  | 
54 | Cc1nc2ccccc2n1CCOc1ccc(Cl)cc1 | > 20 |  |  | 
55 | CCc1nc2ccc(C)cc2n1CCCOc1ccc(C)c(Cl)c1 | 0.22 (≈ 0.0754 µg/mL) | 17 | 77 | inactive
56 | CCc1nc2ccccc2n1CCCCOc1cc(C)c(CN2CCOCC2)cc1C | 1.3 (≈ 0.548 µg/mL) | 48 | 15 | 
57 | CCc1nc2ccccc2n1CCOc1ccc(Cl)cc1 | > 20 |  |  | 
58 | CCc1nc2ccccc2n1CCCCOc1ccc(C)c(Cl)c1 | 0.23 (≈ 0.0789 µg/mL) | 14 | 61 | 
59 | CCc1nc2ccc(Cl)cc2n1CCCCOc1ccccc1 | 7.1 (≈ 2.33 µg/mL) | 25 | 3.5 | 
60 | CCc1nc2ccccc2n1CCCCOc1cccc(Cl)c1 | 0.88 (≈ 0.289 µg/mL) | 22 | 25 | 
61 | CCc1nc2ccc(C#N)cc2n1CCCCOc1ccccc1 | > 20 | > 20 | >20 | 
62 | CCc1nc2ccc(C)cc2n1CCCNc1ccc(Br)c(C)c1 | 0.052 (≈ 0.0201 µg/mL) | 27 | 523 | inactive
63 | c1ccc(OCCCCn2c(N3CCOCC3)nc3ccccc32)cc1 | 20 (≈ 7.03 µg/mL) | 20 | 20 | 
64 | CCc1nc2ccccc2n1CCCCOc1ccc(C)c(C)c1 | 0.3 (≈ 0.0967 µg/mL) | 14 | 53 | 
